Data published in US9023864B2, “Indole derivatives as CRTH2 receptor antagonists” (Merck Sharp & Dohme Corp., priority 2009, dated 2015).

What follows are compounds tested against T1, hCRTH2 (Homo sapiens, UniProt Q9Y5Y4) (assay: Radioligand binding assay ([3H]PGD2 competition, membranes from HEK-hCRTH2 cell line)). Conditions: 0.7 nM [3H]PGD2, membrane protein from HEK-hCRTH2 cell line, 60 min at room temperature; values given as ranges.
T1 construct: expressed in transfected cells; host or cells: HEK cell line expressing hCRTH2 (HEK-hCRTH2); membranes
T1 sequence (Q9Y5Y4 1-395): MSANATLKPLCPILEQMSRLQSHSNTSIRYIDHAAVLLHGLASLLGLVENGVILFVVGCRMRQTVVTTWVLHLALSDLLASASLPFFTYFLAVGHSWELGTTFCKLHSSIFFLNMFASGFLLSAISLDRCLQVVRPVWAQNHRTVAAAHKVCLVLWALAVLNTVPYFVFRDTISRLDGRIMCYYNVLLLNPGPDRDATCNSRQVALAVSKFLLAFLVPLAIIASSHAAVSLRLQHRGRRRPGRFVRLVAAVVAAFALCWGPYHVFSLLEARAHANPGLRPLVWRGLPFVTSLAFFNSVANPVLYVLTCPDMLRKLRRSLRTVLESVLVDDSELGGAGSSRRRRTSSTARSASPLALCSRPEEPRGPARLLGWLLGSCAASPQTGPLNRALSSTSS
Procedure: Radioligand Binding Assay.
Radioligand binding assays were performed at room temperature in 10 mM HEPES/KOH pH 7.4, 1 mM EDTA containing 10 mM MnCl2 and 0.7 nM [^3H]PGD2 (NEN, 171 Ci mmol^−1), in a final volume of 0.2 ml. Competing ligands were diluted in dimethylsulfoxide (Me2SO) that was kept constant at 1% (v/v) of the final incubation volume. The reaction was initiated by the addition of 8-20 μg of membrane protein prepared from a HEK-hCRTH2 cell line. Total and non-specific binding were determined in the absence and the presence of 10 μM PGD2, respectively. Under these conditions, specific binding (total minus non-specific) of the radioligand to the receptor reached equilibrium within 50 min and was stable up to 180 min. The reaction was routinely conducted for 60 min at room temperature and terminated by rapid filtration through prewetted Unifilters GF/C (Packard), using a Tomtec MachIII semi-automated harvester (for HEK-hCRTH2). The filters were then washed with 4 ml of the same buffer and residual radioligand bound to the filter was determined by liquid scintillation counting following equilibration in 25 μl Ultima Gold F™ (Unifilter) (Packard). The Ki (in nM) values for representative compounds of the present invention are as follows: ≦5: Examples 3.1, 5.1, 6.1, 7.1, 8.1/8A, 9.1, 26, 27.1, 28.1, 29.1, 30, 31.1, 31.3, 32.1, 32.4, 33.1, 34.1, 36.1, 38.1, 39, 40, 41; >5 and ≦10: Examples, 4, 5.3, 29.2; >10 and ≦50: Examples 1, 10, 14, 21, 22, 25, 31.4, 32.3, 35, 36.2, 37; >50 and ≦100: Examples 2, 5.4, 6.2, 27.2, 28.2; >100: Examples 3.2, 5.2, 7.2, 8.2, 9.2, 11, 12, 13, 15, 16, 17, 18, 19, 20, 23, 24, 31.2, 32.2, 33.2, 34.2, 38.2.
Work on `Cc1c(Cc2ccc(F)cc2)nnn1C1CCc2c(CC(=O)O)c3cccc(F)c3n2C1` (racemic) [Example 37, {4-Fluoro-7-[4-(4-fluorobenzyl)-5-methyl-1H-1,2,3-triazol-1-yl]-6,7,8,9-tetrahydropyrido[1,2-α]indol-10-yl}acetic acid] yielded a Ki of 10 to 50 nM. `O=C(O)Cc1c2n(c3ccccc13)CC(n1nncc1Cc1ccccc1)CC2` (single isomer, unassigned) [Example 3.1, [7-(5-Benzyl-[1,2,3]triazol-1-yl)-6,7,8,9-tetrahydropyrido[1,2-α]indol-10-yl]-acetic acid] gave a Ki of at most 5 nM. `O=C(O)Cc1c2n(c3ccccc13)CC(n1nncc1Cc1ccccc1)CC2` (single isomer, unassigned) [Example 3.2, [7-(5-Benzyl-[1,2,3]triazol-1-yl)-6,7,8,9-tetrahydropyrido[1,2-α]indol-10-yl]-acetic acid] gave a Ki of over 100 nM. For `CC(O)(c1ccc(F)cc1)c1cnnn1C1CCc2c(CC(=O)O)c3ccccc3n2C1` (single isomer, unassigned) [Example 5.1, (7-{5-[1-(4-Fluoro-phenyl)-1-hydroxy-ethyl]-[1,2,3]triazol-1-yl}-6,7,8,9-tetrahydropyrido[1,2-α]indol-10-yl)-acetic acid], the Ki was at most 5 nM. For `CC(O)(c1ccc(F)cc1)c1cnnn1C1CCc2c(CC(=O)O)c3ccccc3n2C1` (single isomer, unassigned) [Example 5.2, (7-{5-[1-(4-Fluoro-phenyl)-1-hydroxy-ethyl]-[1,2,3]triazol-1-yl}-6,7,8,9-tetrahydropyrido[1,2-α]indol-10-yl)-acetic acid], the Ki was over 100 nM. Work on `CC(O)(c1ccc(F)cc1)c1cnnn1C1CCc2c(CC(=O)O)c3ccccc3n2C1` (single isomer, unassigned) [Example 5.3, (7-{5-[1-(4-Fluoro-phenyl)-1-hydroxy-ethyl]-[1,2,3]triazol-1-yl}-6,7,8,9-tetrahydropyrido[1,2-α]indol-10-yl)-acetic acid] yielded a Ki of 5 to 10 nM. Compound `CC(O)(c1ccc(F)cc1)c1cnnn1C1CCc2c(CC(=O)O)c3ccccc3n2C1` (single isomer, unassigned) [Example 5.4, (7-{5-[1-(4-Fluoro-phenyl)-1-hydroxy-ethyl]-[1,2,3]triazol-1-yl}-6,7,8,9-tetrahydropyrido[1,2-α]indol-10-yl)-acetic acid] has a Ki of 50 to 100 nM. Compound `O=C(O)Cc1c2n(c3ccccc13)CC(n1nncc1C1(c3ccccc3)CCCC1)CC2` (single isomer, unassigned) [Example 6.1, {7-[5-(1-Phenyl-cyclopentyl)-[1,2,3]triazol-1-yl]-6,7,8,9-tetrahydropyrido[1,2-α]indol-10-yl}-acetic acid] has a Ki of at most 5 nM. `O=C(O)Cc1c2n(c3ccccc13)CC(n1nncc1C1(c3ccccc3)CCCC1)CC2` (single isomer, unassigned) [Example 6.2, {7-[5-(1-Phenyl-cyclopentyl)-[1,2,3]triazol-1-yl]-6,7,8,9-tetrahydropyrido[1,2-α]indol-10-yl}-acetic acid] showed a Ki of 50 to 100 nM. In the case of `O=C(O)Cc1c2n(c3c(F)cccc13)CC(n1nncc1Cc1ccccc1)CC2` (single isomer, unassigned) [Example 7.1, [7-(5-Benzyl-[1,2,3]triazol-1-yl)-4-fluoro-6,7,8,9-tetrahydropyrido[1,2-α]indol-10-yl]-acetic acid], the Ki is reported as at most 5 nM. Work on `O=C(O)Cc1c2n(c3c(F)cccc13)CC(n1nncc1Cc1ccccc1)CC2` (single isomer, unassigned) [Example 7.2, [7-(5-Benzyl-[1,2,3]triazol-1-yl)-4-fluoro-6,7,8,9-tetrahydropyrido[1,2-α]indol-10-yl]-acetic acid] yielded a Ki of over 100 nM. Work on `O=C(O)Cc1c2n(c3c(F)cccc13)CC(n1nncc1Cc1ccc(F)cc1)CC2` (single isomer, unassigned) [Example 8.2, {4-Fluoro-7-[5-(4-fluoro-benzyl)-[1,2,3]triazol-1-yl]-6,7,8,9-tetrahydropyrido[1,2-α]indol-10-yl}-acetic acid] yielded a Ki of over 100 nM. Compound `O=C(O)Cn1c2c(c3ccccc31)CC(n1nncc1Cc1ccccc1)CC2` (single isomer, unassigned) [Example 9.1, [3-(5-Benzyl-[1,2,3]triazol-1-yl)-1,2,3,4-tetrahydro-carbazol-9-yl]-acetic acid] has a Ki of at most 5 nM. `O=C(O)Cn1c2c(c3ccccc31)CC(n1nncc1Cc1ccccc1)CC2` (single isomer, unassigned) [Example 9.2, [3-(5-Benzyl-[1,2,3]triazol-1-yl)-1,2,3,4-tetrahydro-carbazol-9-yl]-acetic acid] showed a Ki of over 100 nM. `O=C(O)Cc1c2n(c3ccccc13)CC(n1nncc1C(O)(c1ccc(F)cc1)c1ccc(F)cc1)CC2` (single isomer, unassigned) [Example 27.1] showed a Ki of at most 5 nM. For `O=C(O)Cc1c2n(c3ccccc13)CC(n1nncc1C(O)(c1ccc(F)cc1)c1ccc(F)cc1)CC2` (single isomer, unassigned) [Example 27.2], the Ki was 50 to 100 nM. Work on `O=C(O)Cc1c2n(c3ccccc13)CC(n1nncc1Cc1ccc(F)cc1)CC2` (single isomer, unassigned) [Example 28.1] yielded a Ki of at most 5 nM. `O=C(O)Cc1c2n(c3ccccc13)CC(n1nncc1Cc1ccc(F)cc1)CC2` (single isomer, unassigned) [Example 28.2] showed a Ki of 50 to 100 nM. For `CC(c1ccccc1)c1cnnn1C1CCc2c(CC(=O)O)c3ccccc3n2C1` (single isomer, unassigned) [Example 29.1], the Ki was at most 5 nM. In the case of `CC(c1ccccc1)c1cnnn1[C@@H]1CCc2c(CC(=O)O)c3ccccc3n2C1` (single isomer, unassigned) [Example 29.2], the Ki is reported as 5 to 10 nM. For `CC(O)(c1ccc(F)cc1)c1cnnn1C1CCc2c(CC(=O)O)c3cccc(F)c3n2C1` (single isomer, unassigned) [Example 31.1], the Ki was at most 5 nM. Compound `CC(O)(c1ccc(F)cc1)c1cnnn1C1CCc2c(CC(=O)O)c3cccc(F)c3n2C1` (single isomer, unassigned) [Example 31.2] has a Ki of over 100 nM. In the case of `CC(O)(c1ccc(F)cc1)c1cnnn1C1CCc2c(CC(=O)O)c3cccc(F)c3n2C1` (single isomer, unassigned) [Example 31.3], the Ki is reported as at most 5 nM. `CC(O)(c1ccc(F)cc1)c1cnnn1C1CCc2c(CC(=O)O)c3cccc(F)c3n2C1` (single isomer, unassigned) [Example 31.4] gave a Ki of 10 to 50 nM. For `CC(c1ccccc1)c1cnnn1C1CCc2c(CC(=O)O)c3cccc(F)c3n2C1` (single isomer, unassigned) [Example 32.1, {4-Fluoro-7-[5-(1-phenyl-ethyl)-[1,2,3]triazol-1-yl]-6,7,8,9-tetrahydropyrido[1,2-α]indol-10-yl}-acetic acid], the Ki was at most 5 nM. For `CC(c1ccccc1)c1cnnn1C1CCc2c(CC(=O)O)c3cccc(F)c3n2C1` (single isomer, unassigned) [Example 32.2, {4-Fluoro-7-[5-(1-phenyl-ethyl)-[1,2,3]triazol-1-yl]-6,7,8,9-tetrahydropyrido[1,2-α]indol-10-yl}-acetic acid], the Ki was over 100 nM. `CC(c1ccccc1)c1cnnn1C1CCc2c(CC(=O)O)c3cccc(F)c3n2C1` (single isomer, unassigned) [Example 32.3, {4-Fluoro-7-[5-(1-phenyl-ethyl)-[1,2,3]triazol-1-yl]-6,7,8,9-tetrahydropyrido[1,2-α]indol-10-yl}-acetic acid] gave a Ki of 10 to 50 nM. In the case of `CC(c1ccccc1)c1cnnn1C1CCc2c(CC(=O)O)c3cccc(F)c3n2C1` (single isomer, unassigned) [Example 32.4, {4-Fluoro-7-[5-(1-phenyl-ethyl)-[1,2,3]triazol-1-yl]-6,7,8,9-tetrahydropyrido[1,2-α]indol-10-yl}-acetic acid], the Ki is reported as at most 5 nM. Compound `O=C(O)Cc1c2n(c3c(F)cccc13)CC(n1nncc1Cc1ccc(F)c(F)c1)CC2` (single isomer, unassigned) [Example 33.1, {7-[5-(3,4-difluorobenzyl)-1H-1,2,3-triazol-1-yl]-4-fluoro-6,7,8,9-tetrahydropyrido[1,2-a]-indol-10-yl}acetic acid] has a Ki of at most 5 nM.
